Measured values: ChEMBL document CHEMBL4800729 (2021)

Experiments:
[1] = biological target: Ribosomal protein S6 kinase alpha-6 (Homo sapiens) (UniProt Q9UK32); experiment: Rsk4(h) Millipore kinase panel; conditions: Compound concentration 1.0 uM
[2] = biological target: Interferon-induced, double-stranded RNA-activated protein kinase (Homo sapiens) (UniProt P19525); experiment: PKR(h) Millipore kinase panel; conditions: Compound concentration 1.0 uM
[3] = biological target: Vascular endothelial growth factor receptor 3 (Homo sapiens) (UniProt P35916); experiment: Flt4(h) Millipore kinase panel; conditions: Compound concentration 1.0 uM
Sequence of Vascular endothelial growth factor receptor 3 (Homo sapiens) (P35916 whole entry): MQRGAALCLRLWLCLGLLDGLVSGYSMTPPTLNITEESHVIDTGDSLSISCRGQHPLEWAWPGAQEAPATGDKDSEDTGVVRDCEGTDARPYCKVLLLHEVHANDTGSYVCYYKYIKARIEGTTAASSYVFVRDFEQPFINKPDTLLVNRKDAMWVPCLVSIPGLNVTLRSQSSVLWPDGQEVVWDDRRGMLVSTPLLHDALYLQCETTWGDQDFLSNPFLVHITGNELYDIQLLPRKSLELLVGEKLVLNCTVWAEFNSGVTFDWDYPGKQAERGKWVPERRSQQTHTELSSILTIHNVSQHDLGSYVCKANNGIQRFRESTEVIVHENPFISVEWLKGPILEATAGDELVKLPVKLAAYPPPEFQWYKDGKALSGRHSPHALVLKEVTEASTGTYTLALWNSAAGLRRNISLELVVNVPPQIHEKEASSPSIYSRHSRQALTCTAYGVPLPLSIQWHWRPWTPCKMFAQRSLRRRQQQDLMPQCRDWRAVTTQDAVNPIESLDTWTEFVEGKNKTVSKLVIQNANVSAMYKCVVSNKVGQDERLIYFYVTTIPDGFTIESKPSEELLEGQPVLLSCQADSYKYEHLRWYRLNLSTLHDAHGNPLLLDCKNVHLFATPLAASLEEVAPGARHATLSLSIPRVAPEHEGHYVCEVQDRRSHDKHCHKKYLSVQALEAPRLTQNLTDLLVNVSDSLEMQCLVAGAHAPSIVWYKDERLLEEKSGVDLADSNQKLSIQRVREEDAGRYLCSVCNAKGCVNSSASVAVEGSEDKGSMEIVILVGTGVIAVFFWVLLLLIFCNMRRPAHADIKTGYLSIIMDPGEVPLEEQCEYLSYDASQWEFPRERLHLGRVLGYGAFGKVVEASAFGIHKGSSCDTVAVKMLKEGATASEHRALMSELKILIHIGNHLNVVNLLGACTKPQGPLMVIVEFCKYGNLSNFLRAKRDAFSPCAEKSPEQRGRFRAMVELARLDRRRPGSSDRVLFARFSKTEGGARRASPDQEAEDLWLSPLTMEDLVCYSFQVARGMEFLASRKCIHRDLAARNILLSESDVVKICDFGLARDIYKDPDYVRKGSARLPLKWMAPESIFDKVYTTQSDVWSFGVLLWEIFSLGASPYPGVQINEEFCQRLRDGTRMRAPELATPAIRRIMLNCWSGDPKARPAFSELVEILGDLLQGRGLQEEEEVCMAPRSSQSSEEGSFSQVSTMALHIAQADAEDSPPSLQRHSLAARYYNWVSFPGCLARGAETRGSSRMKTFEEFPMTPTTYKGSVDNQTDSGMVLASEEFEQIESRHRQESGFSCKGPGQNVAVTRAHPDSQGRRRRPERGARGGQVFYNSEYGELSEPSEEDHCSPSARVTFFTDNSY

[4] = biological target: Alpha-1A adrenergic receptor (Homo sapiens) (UniProt P35348); experiment: Inhibition of Adrenergic alpha1A at compound concentration of 10.0 uM in the Eurofins-Panlabs radioligand binding assay (Eurofins_assay_203110); design: ligand concentration 0.25 nM; conditions: Rattus norvegicus; Compound concentration 10.0 uM
[5] = biological target: Serine/threonine-protein kinase Nek6 (Homo sapiens) (UniProt Q9HC98); experiment: NEK6(h) Millipore kinase panel; conditions: Compound concentration 1.0 uM
Sequence of Serine/threonine-protein kinase Nek6 (Homo sapiens) (Q9HC98 whole entry): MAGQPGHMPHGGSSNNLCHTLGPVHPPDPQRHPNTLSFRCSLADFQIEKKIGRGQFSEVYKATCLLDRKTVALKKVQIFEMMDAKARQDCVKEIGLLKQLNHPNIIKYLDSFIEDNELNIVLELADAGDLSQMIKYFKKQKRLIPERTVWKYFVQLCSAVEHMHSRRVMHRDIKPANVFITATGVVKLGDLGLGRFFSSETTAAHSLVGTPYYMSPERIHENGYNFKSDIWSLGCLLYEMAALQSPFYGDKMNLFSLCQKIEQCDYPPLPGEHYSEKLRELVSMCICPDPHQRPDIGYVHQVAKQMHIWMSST

[6] = biological target: NUAK family SNF1-like kinase 2 (Homo sapiens) (UniProt Q9H093); experiment: NUAK2(h) Millipore kinase panel; conditions: Compound concentration 1.0 uM
[7] = biological target: Tyrosine-protein kinase JAK2 (Homo sapiens) (UniProt O60674); experiment: JAK2(h) Millipore kinase panel; conditions: Compound concentration 1.0 uM
Sequence of Tyrosine-protein kinase JAK2 (Homo sapiens) (O60674 whole entry): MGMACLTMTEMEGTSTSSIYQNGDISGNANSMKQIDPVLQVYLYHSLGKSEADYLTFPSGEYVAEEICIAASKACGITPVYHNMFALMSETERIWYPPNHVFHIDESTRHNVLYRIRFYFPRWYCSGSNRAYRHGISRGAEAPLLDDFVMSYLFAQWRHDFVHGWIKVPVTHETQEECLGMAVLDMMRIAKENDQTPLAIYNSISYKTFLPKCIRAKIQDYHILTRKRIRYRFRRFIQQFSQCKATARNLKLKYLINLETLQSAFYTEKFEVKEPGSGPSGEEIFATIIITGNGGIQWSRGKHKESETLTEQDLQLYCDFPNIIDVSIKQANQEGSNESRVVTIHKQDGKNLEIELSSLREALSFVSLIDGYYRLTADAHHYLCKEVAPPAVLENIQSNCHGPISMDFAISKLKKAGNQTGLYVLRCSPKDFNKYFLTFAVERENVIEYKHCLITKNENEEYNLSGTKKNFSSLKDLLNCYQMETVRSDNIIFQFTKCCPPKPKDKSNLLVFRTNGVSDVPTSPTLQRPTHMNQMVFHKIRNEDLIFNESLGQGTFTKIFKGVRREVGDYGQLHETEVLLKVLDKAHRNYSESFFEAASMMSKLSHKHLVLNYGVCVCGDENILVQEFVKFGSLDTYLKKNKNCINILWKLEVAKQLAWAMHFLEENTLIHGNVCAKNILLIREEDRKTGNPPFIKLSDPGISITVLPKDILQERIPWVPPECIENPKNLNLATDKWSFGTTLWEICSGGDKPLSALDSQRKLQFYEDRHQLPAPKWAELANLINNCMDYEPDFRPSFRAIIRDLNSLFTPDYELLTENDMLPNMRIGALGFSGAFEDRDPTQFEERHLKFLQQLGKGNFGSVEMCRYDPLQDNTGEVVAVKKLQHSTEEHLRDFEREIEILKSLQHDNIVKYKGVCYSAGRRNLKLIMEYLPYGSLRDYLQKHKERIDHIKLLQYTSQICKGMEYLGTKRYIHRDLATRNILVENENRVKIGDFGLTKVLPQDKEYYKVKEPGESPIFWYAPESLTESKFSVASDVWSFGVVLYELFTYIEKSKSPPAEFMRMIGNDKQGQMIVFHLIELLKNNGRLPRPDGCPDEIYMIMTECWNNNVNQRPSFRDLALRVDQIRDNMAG

[8] = biological target: Gamma-aminobutyric acid type B receptor subunit 1 (Homo sapiens) (UniProt Q9UBS5); conditions: Rattus norvegicus; Compound concentration 10.0 uM
[9] = biological target: High affinity nerve growth factor receptor (Homo sapiens) (UniProt P04629); experiment: TrkA(h) Millipore kinase panel; conditions: Compound concentration 1.0 uM
[10] = biological target: Protein kinase C zeta type (Homo sapiens) (UniProt Q05513); experiment: PKCzeta(h) Millipore kinase panel; conditions: Compound concentration 1.0 uM
[11] = biological target: D(3) dopamine receptor (Homo sapiens) (UniProt P35462); conditions: Compound concentration 10.0 uM
[12] = biological target: Serine/threonine-protein kinase VRK2 (Homo sapiens) (UniProt Q86Y07); experiment: VRK2(h) Millipore kinase panel; conditions: Compound concentration 1.0 uM
[13] = biological target: Dual specificity mitogen-activated protein kinase kinase 2 (Homo sapiens) (UniProt P36507); experiment: MEK2(h) Millipore kinase panel; conditions: Compound concentration 1.0 uM
[14] = biological target: Serine/threonine-protein kinase haspin (Homo sapiens) (UniProt Q8TF76); experiment: Haspin(h) Millipore kinase panel; conditions: Compound concentration 1.0 uM
[15] = biological target: SRSF protein kinase 1 (Homo sapiens) (UniProt Q96SB4); experiment: SRPK1(h) Millipore kinase panel; conditions: Compound concentration 1.0 uM
[16] = biological target: Calcium/calmodulin-dependent protein kinase type IV (Homo sapiens) (UniProt Q16566); experiment: CaMKIV(h) Millipore kinase panel; conditions: Compound concentration 1.0 uM
[17] = biological target: Serine/threonine-protein kinase MARK1 (Homo sapiens) (UniProt Q9P0L2); experiment: MARK1(h) Millipore kinase panel; conditions: Compound concentration 1.0 uM
Sequence of Serine/threonine-protein kinase MARK1 (Homo sapiens) (Q9P0L2 whole entry, looked up): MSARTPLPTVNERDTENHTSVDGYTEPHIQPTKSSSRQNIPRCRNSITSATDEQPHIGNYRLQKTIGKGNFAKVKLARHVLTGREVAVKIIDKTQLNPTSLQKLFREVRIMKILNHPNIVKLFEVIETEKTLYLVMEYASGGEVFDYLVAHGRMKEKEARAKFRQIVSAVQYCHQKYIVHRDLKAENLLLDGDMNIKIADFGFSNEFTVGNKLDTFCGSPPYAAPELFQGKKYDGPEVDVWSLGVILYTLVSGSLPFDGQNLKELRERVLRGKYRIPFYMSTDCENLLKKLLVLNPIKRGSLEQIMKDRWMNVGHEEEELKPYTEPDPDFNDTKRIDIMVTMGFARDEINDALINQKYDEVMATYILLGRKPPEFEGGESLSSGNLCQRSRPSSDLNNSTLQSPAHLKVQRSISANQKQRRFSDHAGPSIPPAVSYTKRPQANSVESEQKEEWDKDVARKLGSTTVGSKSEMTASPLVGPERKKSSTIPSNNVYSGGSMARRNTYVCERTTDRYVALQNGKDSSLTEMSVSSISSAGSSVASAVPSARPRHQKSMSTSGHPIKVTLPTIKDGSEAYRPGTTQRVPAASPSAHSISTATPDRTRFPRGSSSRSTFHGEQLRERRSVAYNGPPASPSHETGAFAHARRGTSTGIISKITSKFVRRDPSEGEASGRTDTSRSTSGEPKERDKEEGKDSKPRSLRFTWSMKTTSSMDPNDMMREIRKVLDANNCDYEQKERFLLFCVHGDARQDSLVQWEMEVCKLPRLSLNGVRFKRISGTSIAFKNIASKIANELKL

[18] = biological target: cGMP-specific 3',5'-cyclic phosphodiesterase (Homo sapiens) (UniProt O76074); conditions: Compound concentration 10.0 uM
[19] = biological target: Cyclin-dependent kinase 1/cyclin B (Homo sapiens) (UniProt P06493+P14635+Q8WWL7+O95067); experiment: CDK1/cyclinB(h) Millipore kinase panel; assay type: protein-complex assay; conditions: Compound concentration 1.0 uM
[20] = biological target: [Pyruvate dehydrogenase (acetyl-transferring)] kinase isozyme 2, mitochondrial (Homo sapiens) (UniProt Q15119); experiment: PDHK2(h) Millipore kinase panel; conditions: Compound concentration 1.0 uM
[21] = biological target: D(4) dopamine receptor (Homo sapiens) (UniProt P21917); conditions: Compound concentration 10.0 uM
[22] = biological target: Sodium-dependent noradrenaline transporter (Homo sapiens) (UniProt P23975); conditions: Compound concentration 10.0 uM
[23] = biological target: Ephrin type-A receptor 7 (Homo sapiens) (UniProt Q15375); experiment: EphA7(h) Millipore kinase panel; conditions: Compound concentration 1.0 uM
[24] = biological target: Serine/threonine-protein kinase TAO3 (Homo sapiens) (UniProt Q9H2K8); experiment: TAO3(h) Millipore kinase panel; conditions: Compound concentration 1.0 uM
[25] = biological target: CDK6/cyclin D3 (Homo sapiens) (UniProt P30281+Q00534); experiment: CDK6/cyclinD3(h) Millipore kinase panel; assay type: protein-complex assay; conditions: Compound concentration 1.0 uM
[26] = biological target: Type-1 angiotensin II receptor (Homo sapiens) (UniProt P30556); conditions: Compound concentration 10.0 uM
[27] = biological target: Prostaglandin G/H synthase 2 (Homo sapiens) (UniProt P35354); experiment: Cyclooxygenase COX-2 Eurofins-Panlabs enzyme assay; design: substrate with concentration; conditions: Compound concentration 10.0 uM
[28] = biological target: Protein kinase C gamma type (Homo sapiens) (UniProt P05129); experiment: PKCgamma(h) Millipore kinase panel; conditions: Compound concentration 1.0 uM
[29] = biological target: Serine/threonine-protein kinase 10 (Homo sapiens) (UniProt O94804); experiment: LOK(h) Millipore kinase panel; conditions: Compound concentration 1.0 uM
[30] = biological target: 5-hydroxytryptamine receptor 2C (Homo sapiens) (UniProt P28335); conditions: Compound concentration 10.0 uM
[31] = biological target: Cyclin-dependent kinase 2/cyclin E (Homo sapiens) (UniProt P24864+P24941+O96020); experiment: CDK2/cyclinE(h) Millipore kinase panel; assay type: protein-complex assay; conditions: Compound concentration 1.0 uM
[32] = biological target: Tyrosine-protein kinase CSK (Homo sapiens) (UniProt P41240); experiment: CSK(h) Millipore kinase panel; conditions: Compound concentration 1.0 uM
Sequence of Tyrosine-protein kinase CSK (Homo sapiens) (P41240 2-450 limits assumed): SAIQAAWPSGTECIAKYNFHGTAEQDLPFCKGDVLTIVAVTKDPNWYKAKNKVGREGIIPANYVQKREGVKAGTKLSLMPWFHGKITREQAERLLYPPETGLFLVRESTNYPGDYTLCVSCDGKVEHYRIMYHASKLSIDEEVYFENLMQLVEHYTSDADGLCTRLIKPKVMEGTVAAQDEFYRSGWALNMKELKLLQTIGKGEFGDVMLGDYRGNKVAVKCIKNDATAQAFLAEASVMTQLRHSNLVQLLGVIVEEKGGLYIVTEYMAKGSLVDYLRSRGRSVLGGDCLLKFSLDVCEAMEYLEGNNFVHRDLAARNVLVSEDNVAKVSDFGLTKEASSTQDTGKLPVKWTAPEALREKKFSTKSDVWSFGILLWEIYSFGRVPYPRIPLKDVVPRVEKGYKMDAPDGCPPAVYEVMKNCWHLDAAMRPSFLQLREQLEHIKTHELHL

[33] = biological target: T1, Alpha-2C adrenergic receptor (Homo sapiens) (UniProt P18825); conditions: Compound concentration 10.0 uM
T1 sequence (whole entry): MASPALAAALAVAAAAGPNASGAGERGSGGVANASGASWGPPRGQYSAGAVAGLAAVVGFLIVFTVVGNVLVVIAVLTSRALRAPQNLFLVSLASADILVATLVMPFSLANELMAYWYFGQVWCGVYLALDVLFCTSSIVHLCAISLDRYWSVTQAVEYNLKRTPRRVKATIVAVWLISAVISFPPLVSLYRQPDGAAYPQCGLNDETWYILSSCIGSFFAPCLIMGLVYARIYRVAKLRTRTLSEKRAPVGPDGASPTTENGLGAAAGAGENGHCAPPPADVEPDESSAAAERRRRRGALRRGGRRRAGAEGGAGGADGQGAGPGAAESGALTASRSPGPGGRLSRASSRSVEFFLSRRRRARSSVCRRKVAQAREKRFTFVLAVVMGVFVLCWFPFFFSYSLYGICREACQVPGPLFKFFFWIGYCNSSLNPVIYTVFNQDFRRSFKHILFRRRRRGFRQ

[34] = biological target: Ribosomal protein S6 kinase alpha-5 (Homo sapiens) (UniProt O75582); experiment: MSK1(h) Millipore kinase panel; conditions: Compound concentration 1.0 uM
[35] = biological target: Serine/threonine-protein kinase BRSK1 (Homo sapiens) (UniProt Q8TDC3); experiment: BrSK1(h) Millipore kinase panel; conditions: Compound concentration 1.0 uM
[36] = biological target: Serine/threonine-protein kinase 35 (Homo sapiens) (UniProt Q8TDR2); experiment: CLIK1(h) Millipore kinase panel; conditions: Compound concentration 1.0 uM
[37] = biological target: Kappa-type opioid receptor (Homo sapiens) (UniProt P41145); conditions: Compound concentration 10.0 uM
[38] = biological target: Serine/threonine-protein kinase MRCK alpha (Homo sapiens) (UniProt Q5VT25); experiment: MRCKalpha(h) Millipore kinase panel; conditions: Compound concentration 1.0 uM
[39] = biological target: Serine/threonine-protein kinase SIK2 (Homo sapiens) (UniProt Q9H0K1); experiment: SIK2(h) Millipore kinase panel; conditions: Compound concentration 1.0 uM
Sequence of Serine/threonine-protein kinase SIK2 (Homo sapiens) (Q9H0K1 whole entry, looked up): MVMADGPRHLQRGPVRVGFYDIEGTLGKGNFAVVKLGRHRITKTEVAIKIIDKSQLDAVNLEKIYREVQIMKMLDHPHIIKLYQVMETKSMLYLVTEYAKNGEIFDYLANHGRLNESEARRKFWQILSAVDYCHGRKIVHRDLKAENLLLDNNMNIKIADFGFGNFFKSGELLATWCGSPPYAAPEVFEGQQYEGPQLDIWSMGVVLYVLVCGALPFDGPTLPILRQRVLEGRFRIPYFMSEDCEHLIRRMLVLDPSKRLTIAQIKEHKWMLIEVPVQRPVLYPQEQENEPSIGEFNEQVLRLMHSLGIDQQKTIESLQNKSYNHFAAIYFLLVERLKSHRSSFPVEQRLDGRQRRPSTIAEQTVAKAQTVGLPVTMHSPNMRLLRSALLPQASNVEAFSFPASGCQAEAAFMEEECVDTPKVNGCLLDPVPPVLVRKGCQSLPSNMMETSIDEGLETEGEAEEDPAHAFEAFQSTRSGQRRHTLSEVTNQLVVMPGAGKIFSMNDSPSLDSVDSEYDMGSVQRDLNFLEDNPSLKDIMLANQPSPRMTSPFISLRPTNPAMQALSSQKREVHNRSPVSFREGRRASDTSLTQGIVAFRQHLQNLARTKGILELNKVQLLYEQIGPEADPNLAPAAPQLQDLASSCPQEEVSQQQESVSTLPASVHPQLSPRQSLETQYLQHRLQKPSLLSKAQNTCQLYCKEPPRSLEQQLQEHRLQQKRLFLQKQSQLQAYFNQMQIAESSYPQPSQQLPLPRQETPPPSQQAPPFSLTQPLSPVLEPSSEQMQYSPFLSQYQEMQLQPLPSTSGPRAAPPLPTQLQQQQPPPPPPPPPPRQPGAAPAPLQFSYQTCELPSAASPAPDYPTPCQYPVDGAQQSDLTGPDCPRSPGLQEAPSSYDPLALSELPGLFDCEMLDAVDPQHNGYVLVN

[40] = biological target: Calcium/calmodulin-dependent protein kinase type 1 (Homo sapiens) (UniProt Q14012); experiment: CaMKI(h) Millipore kinase panel; conditions: Compound concentration 1.0 uM
[41] = biological target: Growth hormone secretagogue receptor type 1 (Homo sapiens) (UniProt Q92847); conditions: Compound concentration 10.0 uM

CC[C@@H](Nc1c(C#N)c(-c2ccc(-c3cccc(C)c3F)cc2)nc2cnccc12)C(=O)O [BAY-091]
inhibition [1]: -6.19%
inhibition [2]: 13.9%
inhibition [3]: 12.9%
inhibition [4]: -4%
inhibition [5]: 9.31%
inhibition [6]: 10.4%
inhibition [7]: -5.62%
inhibition [8]: 5%
inhibition [9]: 5.32%
inhibition [10]: -2.41%
inhibition [11]: 10.5%
inhibition [12]: 4.1%
inhibition [13]: -9.56%
inhibition [14]: 14.2%
inhibition [15]: 3.4%
inhibition [16]: 7.26%
inhibition [17]: 2.52%
inhibition [18]: 62%
inhibition [19]: 8.82%
inhibition [20]: 12.4%
inhibition [21]: 2.8%
inhibition [22]: 25%
inhibition [23]: 2.1%
inhibition [24]: 2.25%
inhibition [25]: 8.28%
inhibition [26]: 22%
inhibition [27]: 29%
inhibition [28]: -0.39%
inhibition [29]: 8.13%
inhibition [30]: -9.38%
inhibition [31]: 7.13%
inhibition [32]: 6.94%
inhibition [33]: 4%
inhibition [34]: 1.48%
inhibition [35]: -4.39%
inhibition [36]: 9.55%
inhibition [37]: -2%
inhibition [38]: -4.99%
inhibition [39]: 3.68%
inhibition [40]: 7.33%
inhibition [41]: 6%
